Literature values in patent US20210186070A1, “STEVIA EXTRACT CONTAINING SELECTED STEVIOL GLYCOSIDES AS FLAVOR, SALTY AND SWEETNESS PROFILE MODIFIER” (PureCircle USA Inc., priority 2013, published 2021).

C=C1C[C@@]23CC[C@H]4[C@@](C)(CCC[C@@]4(C)C(=O)O[C@@H]4O[C@H](CO)[C@@H](O)[C@H](O)[C@H]4O)[C@@H]2CC[C@]1(O[C@@H]1O[C@H](CO)[C@@H](O)[C@H](O[C@@H]2O[C@H](CO)[C@@H](O)[C@H](O)[C@H]2O)[C@H]1O[C@@H]1O[C@H](CO)[C@@H](O)[C@H](O)[C@H]1O)C3 [Rebaudioside A]
sweetness potency, times higher than sucrose: around 300 times
